Laboratory results: patent US20240382452A1, “COMPOSITIONS AND DOSAGE FORMS FOR TOPICAL AND TRANSDERMAL DELIVERY OF ACTIVES AND METHODS OF USE” (priority 2021, published 2024)
Where “and” joins values, the source holds several entries; their conditions need not be identical. Equal entries are not always repeated.

What was measured:
[1] = system: Oxyuranus scutellatus venom; test: Snake venom study, Oxyuranus scutellatus severe neurotoxicity, topical treatment; type: in vivo; conditions: individual mice #1-#4; in 80% DMSO/20% ethanol in <50% 2.5%/2.5% lidocaine/prilocaine cream +/- petrolatum cover
Description: Additional studies used historical controls from earlier studies with venom doses from same lots:
Oxyuranus scutellatus severe neurotoxicity and 3-(5′-benzyl-2′-carbamoyl-[1,1′-biphenyl]-3-yl)-2-methylpropanoic acid as the racemic mixture in 80% DMSO/20% ethanol in <50% 2.5%/2.5% lidocaine/prilocaine cream+/−petrolatum cover (1 each).

[2] = Varespladib DMSO/ethanol pad applied to simulated viper bite on the inventor's calf; type: in vivo, human; conditions: 75 mg/mL in DMSO/ethanol, 2 mL on absorbent pad containing 4% lidocaine; patch applied 24 hours
Experimental: The free-acid of varespladib […] was dissolved at 100 mg/mL in DMSO, then diluted with ethanol to 75 mg/mL and 2 mL applied to an absorbent pad containing 4% lidocaine and applied to a simulated viper bite on the inventor's calf applied by penetration to 1 cm with 18 g hypodermic needles similar in depth to what would be experienced with a large viper's bite.

| SMILES | Cessation of breathing [1] | pain, discomfort or redness at wounded area [2] |
| --- | --- | --- |
| CC(Cc1cccc(-c2cc(Cc3ccccc3)ccc2C(N)=O)c1)C(=O)O (racemic) [3-(5′-benzyl-2′-carbamoyl-[1,1′-biphenyl]-3-yl)-2-methylpropanoic acid] | 64 min and 44 min and 104 min and 111 min | – |
| CCc1c(C(=O)C(N)=O)c2c(OCC(=O)O)cccc2n1Cc1ccccc1 [varespladib] | – | no pain, discomfort or redness |
